Measurements reported in ChEMBL document CHEMBL4049382, “4-Hydroxyphenylpyruvate Dioxygenase and Its Inhibition in Plants and Animals: Small Molecules as Herbicides and Agents for the Treatment of Human Inherited Diseases” (J Med Chem, 2017).
One block for each compound: values may come before it.

Experiments:
[1] = molecular target: T1, 4-hydroxyphenylpyruvate dioxygenase (Arabidopsis thaliana, UniProt P93836); test: Inhibition of Arabidopsis thaliana HPPD expressed in Escherichia coli JM105 using 4-HPP as substrate preincubated for 15 mins followed by substrate addition measured after 15 mins by HPLC analysis
T1 sequence (P93836 whole entry): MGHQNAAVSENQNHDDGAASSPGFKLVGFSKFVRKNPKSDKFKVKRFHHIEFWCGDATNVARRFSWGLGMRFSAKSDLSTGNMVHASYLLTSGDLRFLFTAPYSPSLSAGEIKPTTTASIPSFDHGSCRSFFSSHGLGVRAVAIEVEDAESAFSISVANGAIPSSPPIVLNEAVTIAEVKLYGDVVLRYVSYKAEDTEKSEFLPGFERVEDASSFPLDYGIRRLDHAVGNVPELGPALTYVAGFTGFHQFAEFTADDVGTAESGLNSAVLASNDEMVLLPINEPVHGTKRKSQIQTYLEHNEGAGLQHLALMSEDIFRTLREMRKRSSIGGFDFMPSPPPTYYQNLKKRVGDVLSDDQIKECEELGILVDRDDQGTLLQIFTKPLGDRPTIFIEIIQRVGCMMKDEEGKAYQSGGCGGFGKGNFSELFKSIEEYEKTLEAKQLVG

[2] = molecular target: T2, 4-hydroxyphenylpyruvate dioxygenase (Sus scrofa, UniProt Q02110); test: Inhibition of pig liver HPPD using HPP as substrate after 15 mins
T2 sequence (Q02110 whole entry): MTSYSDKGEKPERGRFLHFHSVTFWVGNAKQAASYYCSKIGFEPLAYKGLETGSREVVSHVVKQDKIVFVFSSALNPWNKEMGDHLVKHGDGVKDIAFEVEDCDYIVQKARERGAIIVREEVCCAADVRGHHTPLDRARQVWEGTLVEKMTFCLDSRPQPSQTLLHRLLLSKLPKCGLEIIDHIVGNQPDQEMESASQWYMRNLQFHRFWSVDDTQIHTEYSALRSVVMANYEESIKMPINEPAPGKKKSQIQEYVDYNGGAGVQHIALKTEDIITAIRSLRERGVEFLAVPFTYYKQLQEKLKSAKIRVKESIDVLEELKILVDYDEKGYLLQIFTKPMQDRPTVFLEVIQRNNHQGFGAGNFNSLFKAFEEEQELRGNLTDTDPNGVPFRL

[3] = molecular target: T1, 4-hydroxyphenylpyruvate dioxygenase; test: Inhibition of Arabidopsis thaliana HPPD expressed in Escherichia coli BL21(DE3) using HPPA as substrate after 10 mins by UV-Vis spectrometric analysis
[4] = molecular target: T3, 4-hydroxyphenylpyruvate dioxygenase (Arabidopsis thaliana) (UniProt P93836); test: Inhibition of Arabidopsis thaliana HPPD
T3 sequence (whole entry): T1 sequence (P93836 whole entry)

Plasmodium falciparum [5] = test: Antiparasitic activity against chloroquine-sensitive Plasmodium falciparum; assay type: functional
Plasmodium falciparum [6] = test: Antiparasitic activity against chloroquine-resistant Plasmodium falciparum; assay type: functional
[7] = molecular target: T2, 4-hydroxyphenylpyruvate dioxygenase; test: Inhibition of pig liver HPPD using 4-hydroxyphenylpyruvic acid as substrate after 15 mins by spectrophotometric analysis
[8] = molecular target: T4, 4-hydroxyphenylpyruvate dioxygenase (Daucus carota, UniProt O23920); test: Inhibition of carrot HPPD expressed in Escherichia coli JM105 using HPPA as substrate
T4 sequence (O23920 whole entry): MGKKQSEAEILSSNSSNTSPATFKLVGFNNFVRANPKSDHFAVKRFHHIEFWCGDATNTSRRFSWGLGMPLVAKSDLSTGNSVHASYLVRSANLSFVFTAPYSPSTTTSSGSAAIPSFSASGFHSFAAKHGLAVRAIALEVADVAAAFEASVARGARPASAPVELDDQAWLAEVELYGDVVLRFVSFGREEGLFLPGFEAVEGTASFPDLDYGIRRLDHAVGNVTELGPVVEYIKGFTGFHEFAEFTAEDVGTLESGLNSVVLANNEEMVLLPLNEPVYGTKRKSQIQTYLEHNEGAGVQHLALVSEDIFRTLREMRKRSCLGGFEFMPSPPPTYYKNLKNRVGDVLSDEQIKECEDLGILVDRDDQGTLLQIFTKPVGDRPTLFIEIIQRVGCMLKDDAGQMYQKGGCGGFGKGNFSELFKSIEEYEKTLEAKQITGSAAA

[9] = molecular target: T5, 4-hydroxyphenylpyruvate dioxygenase (Daucus carota) (UniProt O23920); test: Inhibition of carrot HPPD expressed in Escherichia coli JM105 assessed as dissociation half life using HPPA as substrate
T5 sequence (whole entry): T4 sequence (O23920 whole entry)

[10] = molecular target: T1, 4-hydroxyphenylpyruvate dioxygenase; test: Inhibition of Arabidopsis thaliana HPPD expressed in Escherichia coli JM105 using HPPA as substrate after preincubated for 15 min followed by substrate addition by HPLC analysis
[11] = molecular target: T1, 4-hydroxyphenylpyruvate dioxygenase; test: Inhibition of Arabidopsis thaliana HPPD expressed in Escherichia coli JM109 using HPPA as substrate after 10 mins
[12] = Half life in human plasma at 1 mg/kg administered as capsule; assay type: ADME, organism-based; details: po
[13] = Half life in human plasma at 1 mg/kg administered as solution; assay type: ADME, organism-based
Homo sapiens [14] = test: In vivo inhibition of HPPD in human assessed as blood tyrosine levels at 4 mg/kg measured up to 120 hrs; assay type: functional
Homo sapiens [15] = species on record: Homo sapiens; test: Inhibition of TAT in human Fibroblasts assessed as reduction in tyrosine level at 10 uM after 72 hrs by LC-MS/MS analysis relative to control
Rattus norvegicus [16] = test: In vivo inhibition of HGD activity in rat assessed as micoL of O2 consumed in liver cytosol at 5 to 100 mg/kg/day measured after 90 days relative to control; assay type: functional
Rattus norvegicus [17] = test: In vivo inhibition of TAT activity in rat assessed as 4-hydroxyphenylpyruvate formed in liver cytosol at 50 to 100 mg/kg/day measured after 90 days relative to control; assay type: functional
Rattus norvegicus [18] = test: In vivo inhibition of HPPD activity in rat assessed as micoL of O2 consumed in liver cytosol at 0.1 to 5 mg/kg/day measured after 90 days (reference value: 91%); assay type: functional
Fibroblast = test: Cytotoxicity against human Fibroblast assessed as reduction in cell viability after 24 to 144 hrs by MTT assay
Homo sapiens [19] = species on record: Homo sapiens; test: Inhibition of TAT in human Fibroblasts assessed as reduction in tyrosine level at 0.1 uM after 72 hrs by LC-MS/MS analysis relative to control
Homo sapiens [20] = test: Effect on tyrosine level in plasma in human at 1 mg/kg, po under uncontrolled diet (reference value: 0.076 mM); assay type: ADME, organism-based; details: in vivo
Homo sapiens [21] = test: Effect on tyrosine level in plasma in human at 1 mg/kg, po up to 120 hrs (reference value: 0.076 mM); details: in vivo
[22] = Half life in human plasma at 1 mg/kg
Rattus norvegicus [23] = test: In vivo inhibition of Tyr hydroxylase in rat assessed as tyr concentration in plasma by colorimetric assay (reference value: 0.1 mM); assay type: functional
[24] = molecular target: 4-hydroxyphenylpyruvate dioxygenase (Rattus norvegicus) (UniProt P32755); details: Wistar, 50 nM
Chain of 4-hydroxyphenylpyruvate dioxygenase (Rattus norvegicus) (P32755 whole entry): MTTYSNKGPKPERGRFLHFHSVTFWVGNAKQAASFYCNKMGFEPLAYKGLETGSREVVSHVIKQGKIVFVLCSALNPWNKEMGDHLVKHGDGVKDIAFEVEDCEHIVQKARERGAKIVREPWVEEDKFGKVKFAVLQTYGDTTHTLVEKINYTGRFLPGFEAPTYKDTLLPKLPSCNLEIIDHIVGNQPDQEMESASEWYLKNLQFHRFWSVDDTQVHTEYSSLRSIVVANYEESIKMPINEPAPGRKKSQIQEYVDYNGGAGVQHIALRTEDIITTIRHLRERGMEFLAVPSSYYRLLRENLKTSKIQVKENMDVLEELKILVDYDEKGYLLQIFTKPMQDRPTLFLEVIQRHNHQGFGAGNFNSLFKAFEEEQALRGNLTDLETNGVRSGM
Description: Inhibition of Wistar rat liver HPPD using 4-Hydroxyphenylpyruvate as substrate assessed as reduction in oxygen consumption at 50 nM preincubated for 3 mins followed by substrate addition measured after 30 secs

Homo sapiens [25] = test: In vivo inhibition of HPPD in human assessed dissociation half life for enzyme-compound complex in plasma; assay type: functional, organism-based
Rattus norvegicus [26] = species on record: Rattus norvegicus
Description: In vivo inhibition of HPPD in rat assessed dissociation half life for enzyme-compound complex in plasma

[27] = In vitro half life of rat HPPD complex

Compound: CC1(C)C(=O)C(C(=O)CCc2ccccc2)C(=O)C(C)(C)C1=O
IC50 [1]: 750 nM

IC50 [2]: 10000 nM
Compound: O=C(O)C(O)(O)C(F)c1ccccc1 (stereo unspecified)

Compound: Cc1cccc2cc(C(=O)C3C(=O)CCCC3=O)c(C#N)nc12
Ki [3]: 7 to 9 nM

Compound: Cc1c(C(=O)c2cnn(C)c2O)ccc(S(C)(=O)=O)c1C1=NOCC1
INH [4]: 23 nM

Compound: Cc1c(O)c(C(=O)CCc2ccccc2)c2c(c1O)[C@@H]1C3=C(O[C@]1(C(C)C)O2)C(C)(C)C(=O)C(C)(C)C3=O
IC50 (Plasmodium falciparum [5]): 400 nM
IC50 (Plasmodium falciparum [6]): 300 nM

INH [4]: 600 nM
Compound: Cc1c(C(=O)c2cn[nH]c2O)ccc(S(C)(=O)=O)c1C1=NOCC1

IC50 [7]: 126000 nM
Compound: O=C1CCCC(=O)C1Cc1ccccc1[N+](=O)[O-]

Compound: CCCCCCCCCC(=O)C1C(=O)C(C)(C)C(=O)C(C)(C)C1=O
IC50 [1]: 19 nM

Kd [8]: 6 nM
T1/2 [9]: 2 h
Compound: CS(=O)(=O)c1cc(C(F)(F)F)ccc1C(=O)C(C#N)C(=O)C1CC1 (stereo unspecified)

IC50 [10]: 73000 nM
Compound: O=C1C[C@@H](c2ccccc2)Oc2cc(O)cc(O)c21 [PINOCEMBRIN]

Compound: Cc1nc2c(C)cccc2cc1C(=O)C1C(=O)CCCC1=O
Ki [3]: 7 to 9 nM

Ki [11]: 31 to 37 nM
Compound: O=C1CCCC(=O)C1C(=O)COc1ccc(Cl)cc1

Compound: CS(=O)(=O)c1ccc(C(=O)C2C(=O)CCCC2=O)c([N+](=O)[O-])c1 [MESOTRIONE]
half-life [12]: 1 h
half-life [13]: 1 h
Activity (Homo sapiens [14]): <0.5 mM
inhibition (Homo sapiens [15]): 14%

Compound: CS(=O)(=O)c1ccc(C(=O)C2C(=O)CCCC2=O)c(Cl)c1COCC(F)(F)F [TEMBOTRIONE]
Ki [11]: 13 nM

Compound: Cc1nc2c(C)cccc2cc1C(=O)C1C(=O)CC(C)CC1=O (stereo unspecified)
Ki [3]: 7 to 9 nM

Compound: CCn1c(=O)n(-c2ccccc2C)c(=O)c2cc(C(=O)C3C(=O)CCCC3=O)ccc21
Ki [3]: 5 nM

Compound: Cc1cccc2cc(C(=O)C3C(=O)CC(C)CC3=O)c(C#N)nc12 (stereo unspecified)
Ki [3]: 7 to 9 nM

Compound: COc1nc2c(C)cccc2cc1C(=O)C1C(=O)CCCC1=O
Ki [3]: 7 to 9 nM

IC50 [7]: 700 nM
Compound: O=C1CCCCC1C(=O)c1ccccc1[N+](=O)[O-] (stereo unspecified)

Compound: O=C1CCCC(=O)C1C(=O)COc1ccccc1Cl
Ki [11]: 31 to 37 nM

IC50 [1]: 11800 nM
Compound: CC(C)CC(=O)C1C(=O)C(C)(C)C(=O)C(C)(C)C1=O

Compound: CS(=O)(=O)c1ccc(C(=O)C2C(=O)CCCC2=O)c(Cl)c1 [SULCOTRIONE]
inhibition (INH) (Rattus norvegicus [16]): 29 - 46%
inhibition (INH) (Rattus norvegicus [17]): 43 - 175%
inhibition (INH) (Rattus norvegicus [18]): 96%

IC50 [7]: 15 nM
Compound: O=C1CCCC(OC(=O)C2CC2)=C1Cl

Ki [11]: 31 to 37 nM
Compound: Cc1ccccc1OCC(=O)C1C(=O)CCCC1=O

IC50 [7]: 28 nM
Compound: O=C1CCCC(OC(=O)C2CC2)=C1Br

Compound: CC(=O)C1=C(O)C=C2Oc3c(C(C)=O)c(O)c(C)c(O)c3[C@@]2(C)C1=O [(+)-USNIC ACID]
IC50 [10]: 70 nM

Ki [11]: 31 to 37 nM
Compound: O=C1CCCC(=O)C1C(=O)COc1ccc([N+](=O)[O-])cc1

Compound: COc1nc2c(C)cccc2cc1C(=O)C1C(=O)CC(C)CC1=O (stereo unspecified)
Ki [3]: 7 to 9 nM

inhibition (Homo sapiens [19]): 7%
Compound: CC1(C)CC(=O)C(C(=O)c2ccc([N+](=O)[O-])cc2Cl)C(=O)C1
Activity (Fibroblast): > 1 mM

Compound: O=C1CCCC(=O)C1C(=O)c1ccc(C(F)(F)F)cc1[N+](=O)[O-] [NITISINONE]
Activity (Homo sapiens [20]): 0.136 mM
Activity (Homo sapiens [21]): 1.1 mM
half-life [22]: 53 h
Activity (Rattus norvegicus [23]): >2 mM
inhibition [24]: 50%
T1/2 (Homo sapiens [25]): 53 h
T1/2 (Rattus norvegicus [26]): 63 h
half-life [27]: 63 h

Compound: Cc1cc(C2C(=O)C(C(=O)c3ccc(Cl)cc3)C(=O)CC2(C)C)on1 (stereo unspecified)
Activity (Fibroblast): > 1 mM
